Source: patent publication US8574563B2 (Bristol-Myers Squibb Company, priority 2006, dated 2013)
pEC50: −log10 of the molar value.

System: HCV 1b-377-neo replicon cells
Experiment: HCV replicon assay, HCV 1b-377-neo replicon cells (1b FRET)
Format: cell-based, Hepatitis C virus genotype 1b
Settings: Hepatitis C virus, HCV 1b-377-neo replicon cells; HCV 1b genotype; read-out: EC50 range against HCV 1b (Table 2, Range)
Summary of the method: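 Compounds were tested in genotype 1b subgenomic replicon cells carrying a neomycin marker, alongside a matched replicon line with an NS5A Y2065H substitution that confers resistance to a reference NS5A inhibitor.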

## COC(=O)N[C@@H](C)C(=O)N1CC(F)(F)C[C@H]1c1ncc(-c2ccc(-c3ccc(-c4cnc([C@@H]5CC(F)(F)CN5C(=O)[C@H](C)NC(=O)OC)[nH]4)cc3)cc2)[nH]1 [OL-11, methyl ((1S)-2-((2S)-2-(4-(4′-(2-((2S)-4,4-difluoro-1-(N-(methoxycarbonyl)-L-alanyl)-2-pyrrolidinyl)-1H-imidazol-4-yl)-4-biphenylyl)-1H-imidazol-2-yl)-4,4-difluoro-1-pyrrolidinyl)-1-methyl-2-oxoethyl)carbamate]
  pEC50: 9.00 to 12.00

## COC(=O)N[C@H](C(=O)N1CCC[C@H]1c1ncc(-c2ccc(-c3ccc(-c4cnc([C@@H]5CC(F)(F)CN5C(=O)[C@@H](NC(=O)OC)C(C)C)[nH]4)cc3)cc2)[nH]1)C(C)C [OL-12, methyl ((1S)-1-(((2S)-2-(4-(4′-(2-((2S)-4,4-difluoro-1-((2S)-2-((methoxycarbonyl)amino)-3-methylbutanoyl)-2-pyrrolidinyl)-1H-imidazol-4-yl)-4-biphenylyl)-1H-imidazol-2-yl)-1-pyrrolidinyl)carbonyl)-2-methylpropyl)carbamate]
  pEC50: 9.00 to 12.00

## COC(=O)N[C@H](C(=O)N1CC[C@H](O)[C@H]1c1nc(-c2ccc(-c3ccc(-c4c[nH]c([C@@H]5CCCN5C(=O)[C@@H](NC(=O)OC)C(C)C)n4)cc3)cc2)c[nH]1)C(C)C [OL-19, methyl ((1S)-1-(((2R,3S)-3-hydroxy-2-(4-(4′-(2-((2S)-1-((2S)-2-((methoxycarbonyl)amino)-3-methylbutanoyl)-2-pyrrolidinyl)-1H-imidazol-4-yl)-4-biphenylyl)-1H-imidazol-2-yl)-1-pyrrolidinyl)carbonyl)-2-methylpropyl)carbamate]
  pEC50: 9.00 to 12.00

## COC(=O)N[C@@H](C)C(=O)N1CC[C@H](O)[C@H]1c1ncc(-c2ccc(-c3ccc(-c4cnc([C@@H]5CCCN5C(=O)[C@H](C)NC(=O)OC)[nH]4)cc3)cc2)[nH]1 [OL-20, methyl ((1S)-2-((2S)-2-(4-(4′-(2-((2R,3S)-3-hydroxy-1-(N-(methoxycarbonyl)-L-alanyl)-2-pyrrolidinyl)-1H-imidazol-4-yl)-4-biphenylyl)-1H-imidazol-2-yl)-1-pyrrolidinyl)-1-methyl-2-oxoethyl)carbamate]
  pEC50: 7.00 to 9.00

## COC(=O)N[C@H](C(=O)N1CC[C@@H](O)[C@H]1c1ncc(-c2ccc(-c3ccc(-c4cnc([C@@H]5CCCN5C(=O)[C@@H](NC(=O)OC)C(C)C)[nH]4)cc3)cc2)[nH]1)C(C)C [OL-21, methyl ((1S)-1-(((2R)-3-hydroxy-2-(4-(4′-(2-((2S)-1-((2S)-2-((methoxycarbonyl)amino)-3-methylbutanoyl)-2-pyrrolidinyl)-1H-imidazol-4-yl)-4-biphenylyl)-1H-imidazol-2-yl)-1-pyrrolidinyl)carbonyl)-2-methylpropyl)carbamate]
  pEC50: 9.00 to 12.00

## COC(=O)N[C@H](C(=O)N1CCC[C@H]1c1ncc(-c2ccc(-c3ccc(-c4cnc([C@@H]5CCCN5C(=O)[C@@H](Nc5ncccn5)C(C)C)[nH]4)cc3)cc2)[nH]1)C(C)C [cj-11, methyl ((1S)-2-methyl-1-(((2S)-2-(5-(4′-(2-((2S)-1-(N-2-pyrimidinyl-L-valyl)-2-pyrrolidinyl)-1H-imidazol-5-yl)-4-biphenylyl)-1H-imidazol-2-yl)-1-pyrrolidinyl)carbonyl)propyl)carbamate]
  pEC50: 9.00 to 12.00

## COC(=O)N[C@@H](C)C(=O)N1CCC[C@H]1c1ncc(-c2ccc(-c3ccc(-c4cnc([C@@H]5CCCN5C(=O)[C@@H](Nc5ncccn5)C(C)C)[nH]4)cc3)cc2)[nH]1 [cj-11a, methyl ((1S)-1-methyl-2-oxo-2-((2S)-2-(5-(4′-(2-((2S)-1-(N-2-pyrimidinyl-L-valyl)-2-pyrrolidinyl)-1H-imidazol-5-yl)-4-biphenylyl)-1H-imidazol-2-yl)-1-pyrrolidinyl)ethyl)carbamate]
  pEC50: 9.00 to 12.00

## COC(=O)N[C@@H](C(=O)N1CCC[C@H]1c1ncc(-c2ccc(-c3ccc(-c4cnc([C@@H]5CCCN5C(=O)[C@@H](Nc5ncccn5)C(C)C)[nH]4)cc3)cc2)[nH]1)c1ccccc1 [cj-11b, methyl ((1R)-2-oxo-1-phenyl-2-((2S)-2-(5-(4′-(2-((2S)-1-(N-2-pyrimidinyl-L-valyl)-2-pyrrolidinyl)-1H-imidazol-5-yl)-4-biphenylyl)-1H-imidazol-2-yl)-1-pyrrolidinyl)ethyl)carbamate]
  pEC50: 9.00 to 12.00

## CCN(CC)[C@@H](C(=O)N1CCC[C@H]1c1ncc(-c2ccc(-c3ccc(-c4cnc([C@@H]5CCCN5C(=O)[C@@H](Nc5ncccn5)C(C)C)[nH]4)cc3)cc2)[nH]1)c1ccccc1 [cj-11c, N-((1S)-1-(((2S)-2-(5-(4′-(2-((2S)-1-((2R)-2-(diethylamino)-2-phenylacetyl)-2-pyrrolidinyl)-1H-imidazol-5-yl)-4-biphenylyl)-1H-imidazol-2-yl)-1-pyrrolidinyl)carbonyl)-2-methylpropyl)-2-pyrimidinamine]
  pEC50: 9.00 to 12.00

## COC(=O)N[C@H](C(=O)N1CCC[C@H]1c1ncc(-c2ccc(-c3ccc(-c4cnc([C@@H]5CCCN5C(=O)[C@@H](NC5=NCCN5C)C(C)C)[nH]4)cc3)cc2)[nH]1)C(C)C [cj-11d, methyl ((1S)-2-methyl-1-(((2S)-2-(5-(4′-(2-((2S)-1-(N-(1-methyl-4,5-dihydro-1H-imidazol-2-yl)-L-valyl)-2-pyrrolidinyl)-1H-imidazol-5-yl)-4-biphenylyl)-1H-imidazol-2-yl)-1-pyrrolidinyl)carbonyl)propyl)carbamate]
  pEC50: 9.00 to 12.00

## COC(=O)N[C@H](C(=O)N1CCC[C@H]1c1ncc(-c2ccc(-c3ccc(-c4cnc([C@@H]5CCCN5C(=O)[C@@H](NC5=NCCN5)C(C)C)[nH]4)cc3)cc2)[nH]1)C(C)C [cj-11e, methyl ((1S)-1-(((2S)-2-(5-(4′-(2-((2S)-1-(N-(4,5-dihydro-1H-imidazol-2-yl)-L-valyl)-2-pyrrolidinyl)-1H-imidazol-5-yl)-4-biphenylyl)-1H-imidazol-2-yl)-1-pyrrolidinyl)carbonyl)-2-methylpropyl)carbamate]
  pEC50: 5.00 to 6.00

## COC(=O)N[C@@H](C)C(=O)N1CCC[C@H]1c1ncc(-c2ccc(-c3ccc(-c4cnc([C@@H]5CCCN5C(=O)[C@@H](NC5=NCCN5)C(C)C)[nH]4)cc3)cc2)[nH]1 [cj-11f, methyl ((1S)-2-((2S)-2-(5-(4′-(2-((2S)-1-(N-(4,5-dihydro-1H-imidazol-2-yl)-L-valyl)-2-pyrrolidinyl)-1H-imidazol-5-yl)-4-biphenylyl)-1H-imidazol-2-yl)-1-pyrrolidinyl)-1-methyl-2-oxoethyl)carbamate]
  pEC50: 7.00 to 9.00

## CCN(CC)[C@@H](C(=O)N1CCC[C@H]1c1ncc(-c2ccc(-c3ccc(-c4cnc([C@@H]5CCCN5C(=O)[C@@H](NC5=NCCN5)C(C)C)[nH]4)cc3)cc2)[nH]1)c1ccccc1 [cj-11g, N-((1S)-1-(((2S)-2-(5-(4′-(2-((2S)-1-((2R)-2-(diethylamino)-2-phenylacetyl)-2-pyrrolidinyl)-1H-imidazol-5-yl)-4-biphenylyl)-1H-imidazol-2-yl)-1-pyrrolidinyl)carbonyl)-2-methylpropyl)-4,5-dihydro-1H-imidazol-2-amine]
  pEC50: 7.00 to 9.00

## COC(=O)N[C@H](C(=O)N1CCC[C@H]1c1ncc(-c2ccc(-c3ccc(-c4cnc([C@@H]5CCCN5C(=O)[C@H](Nc5ncccn5)C(C)C)[nH]4)cc3)cc2)[nH]1)C(C)C [cj-11i, methyl ((1S)-2-methyl-1-(((2S)-2-(5-(4′-(2-((2S)-1-(N-2-pyrimidinyl-D-valyl)-2-pyrrolidinyl)-1H-imidazol-5-yl)-4-biphenylyl)-1H-imidazol-2-yl)-1-pyrrolidinyl)carbonyl)propyl)carbamate]
  pEC50: 9.00 to 12.00

## COC(=O)N[C@@H](C)C(=O)N1CCC[C@H]1c1ncc(-c2ccc(-c3ccc(-c4cnc([C@@H]5CCCN5C(=O)[C@H](Nc5ncccn5)C(C)C)[nH]4)cc3)cc2)[nH]1 [cj-11j, methyl ((1S)-1-methyl-2-oxo-2-((2S)-2-(5-(4′-(2-((2S)-1-(N-2-pyrimidinyl-D-valyl)-2-pyrrolidinyl)-1H-imidazol-5-yl)-4-biphenylyl)-1H-imidazol-2-yl)-1-pyrrolidinyl)ethyl)carbamate]
  pEC50: 9.00 to 12.00

## CCN(CC)[C@@H](C(=O)N1CCC[C@H]1c1ncc(-c2ccc(-c3ccc(-c4cnc([C@@H]5CCCN5C(=O)[C@H](Nc5ncccn5)C(C)C)[nH]4)cc3)cc2)[nH]1)c1ccccc1 [cj-11k, N-((1R)-1-(((2S)-2-(5-(4′-(2-((2S)-1-((2R)-2-(diethylamino)-2-phenylacetyl)-2-pyrrolidinyl)-1H-imidazol-5-yl)-4-biphenylyl)-1H-imidazol-2-yl)-1-pyrrolidinyl)carbonyl)-2-methylpropyl)-2-pyrimidinamine]
  pEC50: 9.00 to 12.00

## COC(=O)N[C@H](C(=O)N1CCC[C@H]1c1ncc(-c2ccc(-c3ccc(-c4cnc([C@@H]5CCCN5C(=O)[C@H](NC5=NCCN5C)C(C)C)[nH]4)cc3)cc2)[nH]1)C(C)C [cj-11m, methyl ((1S)-2-methyl-1-(((2S)-2-(5-(4′-(2-((2S)-1-(N-(1-methyl-4,5-dihydro-1H-imidazol-2-yl)-D-valyl)-2-pyrrolidinyl)-1H-imidazol-5-yl)-4-biphenylyl)-1H-imidazol-2-yl)-1-pyrrolidinyl)carbonyl)propyl)carbamate]
  pEC50: 7.00 to 9.00

## COC(=O)N[C@H](C(=O)N1CCC[C@H]1c1ncc(-c2ccc(-c3ccc(-c4cnc([C@@H]5CCCN5C(=O)[C@H](NC5=NCCN5)C(C)C)[nH]4)cc3)cc2)[nH]1)C(C)C [cj-11n, methyl ((1S)-1-(((2S)-2-(5-(4′-(2-((2S)-1-(N-(4,5-dihydro-1H-imidazol-2-yl)-D-valyl)-2-pyrrolidinyl)-1H-imidazol-5-yl)-4-biphenylyl)-1H-imidazol-2-yl)-1-pyrrolidinyl)carbonyl)-2-methylpropyl)carbamate]
  pEC50: 7.00 to 9.00

## COC(=O)N[C@H](C(=O)N1CCC[C@H]1c1ncc(-c2ccc(-c3ccc(-c4cnc([C@@H]5CCCN5C(=O)[C@H](NC5=NCCN5)C(C)C)[nH]4)cc3)cc2)[nH]1)C1CC1 [cj-11o, methyl ((1S)-1-cyclopropyl-2-((2S)-2-(5-(4′-(2-((2S)-1-(N-(4,5-dihydro-1H-imidazol-2-yl)-D-valyl)-2-pyrrolidinyl)-1H-imidazol-5-yl)-4-biphenylyl)-1H-imidazol-2-yl)-1-pyrrolidinyl)-2-oxoethyl)carbamate]
  pEC50: 7.00 to 9.00
